Experimental data published in US20060222675A1, “Personal care compositions with color changing indicator” (priority 2005, published 2006).

Test system: bacteria, virus and yeast
Test: germicidal efficacy of surfactant-detergent compounds
Settings: surfactants tested separately and in combination
Text: Disinfecting surfactant-detergent compounds are also used in the liquid composition. Surfactants are effective germicides and attack the membranes of the organisms. Also, the surfactants are surface active reducing surface tension. […] It is thought that the surfactant has two characteristics which contribute to this invention. Those being germicidal activity including effectiveness over a wide range of organisms including bacteria, virus and yeast and providing a reduction of the surface tension of the composition to achieve effective spread and distribution if the germicide on the surface to be disinfected. Two different types of surfactants were tested separately and in combination for efficacy. […] There are other compounds which have the properties of germicide-surfactants, and this invention is not limited to those compounds shown in the examples.

| Compound | efficacy as germicide-surfactant |
| --- | --- |
| octyl phenoxy polyethoxyethanol | effective germicide-surfactants |
| CCCCCCCCCCCCOS(=O)(=O)[O-].[Na+] [sodium dodecyl sulfate] | effective germicide-surfactants |
